# From patent US20100021885A1, “REAGENT SETS AND GENE SIGNATURES FOR NON-GENOTOXIC HEPATOCARCINOGENICITY” (priority 2006, published 2010)
# Where two headings read alike, the source gives them in different places.
# Legend:
# liver of rats = details: cited from earlier work
# [1] = system: livers from treated male Sprague-Dawley rats
# Procedure: Briefly, in vivo short-term repeat dose rat studies were conducted on over 580 test compounds, including marketed and withdrawn drugs, environmental and industrial toxicants, and standard biochemical reagents. Rats (three per group) were dosed daily at either a low or high dose. […] Animals were necropsied on days 0.25, 1, 3, and 5 or 7. Up to 13 tissues (e.g., liver, kidney, heart, bone marrow, blood, spleen, brain, intestine, glandular and nonglandular stomach, lung, muscle, and gonads) were collected for histopathological evaluation and microarray expression profiling on the Amersham CodeLink™ RU1 platform (also referred to herein as “CodeLink Uniset™ Rat 1 Bioarray”). In addition, a clinical pathology panel consisting of 37 clinical chemistry and hematology parameters was generated from blood samples collected on days 3 and 5.
# The remaining 21 NGTC chemicals and 26 NC chemicals were reserved for independent validation of the signature. Each chemical was evaluated in a short term repeat dose in vivo study in male Sprague-Dawley rats (n=3/group). The livers from treated and control rats were collected after 1, 3 and 5 days of dosing and RNA was extracted for gene expression profiling. Gene expression changes in treated animals were compared to suitably matched controls and represented as average log10 ratios for each treatment group. Since the development of tumors is a long term multi-step process, the 100 training set chemicals were profiled at the latest time point in order to capture gene expression changes that were likely to be reflective of repeat dose treatment effects that contribute to carcinogenicity and not reflective of an initial stimulus following a single dose that may be transient in nature.
# Male Sprague-Dawley (Crl:CD®(SD)(IGS)BR) rats (weight matched, 7 to 8 weeks of age and averaging 200 to 250 g) were purchased from Charles River Laboratories (Portage, Mich.) and housed individually in hanging, stainless steel, wire-bottom cages in a temperature (66-77° F.), light (12-hour dark/light cycle) and humidity (30-70%) controlled room. […] Housing and treatment of the animals were in accordance with regulations outlined in the USDA Animal Welfare Act (9 CFR Parts 1, 2 and 3). Animals were assigned to groups such that mean body weights were within 10% of the mean vehicle control group. Test articles were administered either orally (10 ml of corn oil/kg body weight) or by intra-peritoneal injection (5 ml of saline/kg body weight), as indicated. Animals were dosed once daily starting on day 0, and necropsied 24 hrs after the last dose, as indicated. An equivalent number of time- and vehicle-matched control rats were treated concurrently.
# Briefly, liver samples from 3 rats were chosen from each treatment and control group for gene expression analysis on the Codelink Uniset™ Rat 1 Bioarray (GE Healthcare Bio-Sciences Corp., Piscataway, N.J.). A complete list of probes on the array is provided on the Amersham Biosciences web site (www.amershambiosciences.com). Log transformed signal data for all probes were array-wise normalized used Array Qualifier (Novation Biosciences, Palo Alto, Calif.), a non-linear centralization normalization procedure adapted for the CodeLink microarray platform. Log10 ratios for each experimental group are computed as the difference between the average of the logs of the normalized experimental signals and the average of the logs of the normalized control signals for each gene.
# where S is the scalar product and b is the bias term. Evaluation of S for a test experiment across the n genes in the signature determines what side of the hyperplane in m dimensional space the test experiment lies, and thus the result of the classification. Experiments with scalar products greater than 0 are considered positive for non-genotoxic hepatocarcinogenicity.
# [2] = test chemicals, literature class NGTC or NC
# [3] = male, Sprague-Dawley, rat, in vivo
# [4] = 37 gene signature, maximum scalar product over days 1, 3 and 5, scalar product greater than zero = positive
# [5] = maximum of days 1, 3, 5, greater than zero = classified non-genotoxic hepatocarcinogen
compound,measurement,setting,value
"ClC(Cl)Cl [chloroform, reference compound]",Class,"liver of rats; rat, in vivo",NGTC
same,Day 1 (scalar product),"[1]; male, rat, in vivo",1.50
same,Day 3 (scalar product),"[1]; male, rat, in vivo",0.74
same,Day 5 (scalar product),"[1]; male, rat, in vivo",0.27
same,Max (maximum scalar product observed over the multiple time points),"[1]; male, rat, in vivo",1.50
NC(=O)N1c2ccccc2C=Cc2ccccc21 [CARBAMAZEPINE],Class,liver of rats; [2],NGTC
same,Max (maximum scalar product observed over the multiple time points),[1]; [3],−0.35
CC[C@H](C)C(=O)O[C@H]1C[C@@H](C)C=C2C=C[C@H](C)[C@H](CC[C@@H]3C[C@@H](O)CC(=O)O3)[C@H]21 [LOVASTATIN],Class,liver of rats; [2],NGTC
same,Max (maximum scalar product observed over the multiple time points),[1]; [3],1.07
"ClC(Cl)(Cl)Cl [carbon tetrachloride, reference compound]",Class,liver of rats; [2],NGTC
same,signature prediction for non-genotoxic hepatocarcinogenicity,[1]; [4],positive
same,Max (maximum scalar product observed over the multiple time points),[1]; [5],0.50
CCCCC(CC)COC(=O)c1ccccc1C(=O)OCC(CC)CCCC (stereo not drawn) [BIS(2-ETHYLHEXYL)PHTHALATE],Class,"liver of rats; rat, in vivo",NGTC
same,Day 1 (scalar product),"[1]; rat, in vivo",0.47
same,Day 3 (scalar product),"[1]; rat, in vivo",1.04
same,Day 5 (scalar product),"[1]; rat, in vivo",−0.09
same,Max (maximum scalar product observed over the multiple time points),"[1]; rat, in vivo",1.04
CC[C@]1(O)CC[C@H]2[C@@H]3CCC4=CCCC[C@@H]4[C@H]3CC[C@@]21C [ETHYLESTRENOL],Class,liver of rats; [2],NGTC
same,Max (maximum scalar product observed over the multiple time points),[1]; [5],2.25
"CC(=O)Nc1ccc2c(c1)Cc1ccccc1-2 [2-acetylaminofluorene, reference compound]",Class,liver of rats; genotoxic hepatocarcinogens section,GTC
same,signature prediction for non-genotoxic hepatocarcinogenicity,[1]; [4],weakly positive
same,scalar product (SP),"[1]; 37 gene signature, maximum scalar product over the time points",0.03
same,Max (maximum scalar product observed over the multiple time points),[1]; [5],0.03
OC(Cn1cncn1)(Cn1cncn1)c1ccc(F)cc1F [FLUCONAZOLE],Class,liver of rats; [2],NGTC
same,Max (maximum scalar product observed over the multiple time points),[1]; [3],3.63
CC(=O)S[C@@H]1CC2=CC(=O)CC[C@]2(C)[C@H]2CC[C@@]3(C)[C@@H](CC[C@@]34CCC(=O)O4)[C@H]12 [SPIRONOLACTONE],Class,liver of rats; [2],NGTC
same,Max (maximum scalar product observed over the multiple time points),[1]; [3],0.37
C[C@]12Cc3c[nH]nc3C[C@@H]1CC[C@@H]1[C@@H]2CC[C@@]2(C)[C@H]1CC[C@]2(C)O [STANOZOLOL],Class,liver of rats; [2],NGTC
same,Max (maximum scalar product observed over the multiple time points),[1]; [5],0.54
CC(C)(Oc1ccc(CCNC(=O)c2ccc(Cl)cc2)cc1)C(=O)O [BEZAFIBRATE],Class,liver of rats; [2],NGTC
same,Max (maximum scalar product observed over the multiple time points),[1]; [3],2.72
CC(=O)O[C@]1(C(C)=O)CC[C@H]2[C@@H]3C=C(Cl)C4=CC(=O)[C@@H]5C[C@@H]5[C@]4(C)[C@H]3CC[C@@]21C [CYPROTERONE ACETATE],Class,liver of rats; [2],NGTC
same,Max (maximum scalar product observed over the multiple time points),[1]; [3],1.16
O=c1cc(-c2ccccc2)oc2ccc3ccccc3c12 [BETA-NAPHTHOFLAVONE],Class,liver of rats; [2],NGTC
same,Max (maximum scalar product observed over the multiple time points),[1]; [5],0.81
C[C@]12CC[C@H]3[C@@H](CCC4=CC(=O)CC[C@@]43C)[C@@H]1CC[C@@H]2O [TESTOSTERONE],Class,"liver of rats; rat, in vivo",NGTC
same,Day 1 (scalar product),"[1]; male, rat, in vivo",0.25
same,Day 3 (scalar product),"[1]; male, rat, in vivo",0.45
same,Day 5 (scalar product),"[1]; male, rat, in vivo",−0.63
same,Max (maximum scalar product observed over the multiple time points),"[1]; male, rat, in vivo",0.45
COC(=O)Nc1nc2ccc(Sc3ccccc3)cc2[nH]1 [FENBENDAZOLE],Class,liver of rats; [2],NGTC
same,Max (maximum scalar product observed over the multiple time points),[1]; [5],0.17
"CCN(CC)N=O [N-nitrosodiethylamine, reference compound]",Class,"liver of rats; rat, in vivo",GTC
same,Day 1 (scalar product),"[1]; male, rat, in vivo",−2.17
same,Day 3 (scalar product),"[1]; male, rat, in vivo",−1.83
same,Day 5 (scalar product),"[1]; male, rat, in vivo",−1.41
same,Max (maximum scalar product observed over the multiple time points),"[1]; male, rat, in vivo",−1.41
same,signature prediction for non-genotoxic hepatocarcinogenicity,"[1]; rat, in vivo",negative
